Results as given in patent US12624020B2, “Compositions and methods for preparing and using azetidines” (University of Virginia Patent Foundation, priority 2018, dated 2026).
“Also recorded” adds a separate entry of the source.

Experiments:
[1] = target: T1, recombinant rat DGKα (Rattus norvegicus, UniProt P51556); experiment: ADP-Glo luminescent ADP detection assay; format: cell-based; conditions: 1 hr, HEK293T cells expressing recombinant rat DGKα
T1 construct: expressed in transfected cells; host or cells: HEK293T
T1 sequence (P51556 whole entry): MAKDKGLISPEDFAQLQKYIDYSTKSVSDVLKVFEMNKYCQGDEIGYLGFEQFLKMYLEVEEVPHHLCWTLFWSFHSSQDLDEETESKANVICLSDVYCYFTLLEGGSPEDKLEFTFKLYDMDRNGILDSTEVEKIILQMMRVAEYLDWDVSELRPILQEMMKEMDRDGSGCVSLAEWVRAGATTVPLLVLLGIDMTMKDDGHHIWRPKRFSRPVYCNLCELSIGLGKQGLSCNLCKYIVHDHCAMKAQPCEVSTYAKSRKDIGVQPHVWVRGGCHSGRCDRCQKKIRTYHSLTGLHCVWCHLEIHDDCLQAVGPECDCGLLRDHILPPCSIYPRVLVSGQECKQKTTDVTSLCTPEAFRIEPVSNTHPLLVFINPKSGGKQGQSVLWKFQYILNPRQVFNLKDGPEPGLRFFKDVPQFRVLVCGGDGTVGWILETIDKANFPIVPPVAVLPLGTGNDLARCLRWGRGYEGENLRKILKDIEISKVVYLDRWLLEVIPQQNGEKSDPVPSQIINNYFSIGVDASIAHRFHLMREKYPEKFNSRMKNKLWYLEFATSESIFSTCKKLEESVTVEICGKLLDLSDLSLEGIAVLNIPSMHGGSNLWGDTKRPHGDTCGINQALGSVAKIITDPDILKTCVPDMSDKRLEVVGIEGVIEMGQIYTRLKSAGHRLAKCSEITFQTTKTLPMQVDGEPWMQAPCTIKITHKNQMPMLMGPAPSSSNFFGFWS
Description: (§1) T-cells require endogenous H2S to activate and proliferate. Cystathionine β-synthase (CBS) and Cystathionine γ-lyase (CSE) are two proteins responsible for generating H2S, and previous studies have shown how knockdown of these proteins can drastically impair T-cell function. We initially tested if DGKα was affected by sulfur donors in a recombinant system. Thus, HEK293T cells expressing recombinant rat DGKα were treated with Na2S4 for 1 hr for luminescent ADP detection assay (ADP-Glo) and ABPP experiments. The activity of the rat isoform in our ADP-Glo™ assay (Promega Corporation) decreased by 40% at 10 μM 30% at 1 μM of the sulfur donor.

[2] = target: T1, recombinant rat DGKα; experiment: Competitive ABPP gel assay using TH071; format: binding; conditions: Na2S4 1 hr, TH071 as probe
Description: (§2) Continuing with the benzimidazole azetidine, we appended different alkyne tags via reductive amination or HATU coupling to observe the effects of N-substituents on the ring (Scheme 1 above). Soluble and membrane HEK293T cell proteomes were treated with 25 μM of azetidine compounds for one hour before addition of rhodamine via CLICK chemistry, i.e., copper catalyzed azide-alkyne cycloaddition (CuAAC). After the proteins were resolved via SDS-PAGE, we discovered a robust and unique binding profile from the azetidine probes (FIG. 2 and FIG. 3).
as §1

[3] = tested on: DGK; experiment: Substrate assay (ADP-Glo) on second DGK isoform; format: cell-based; conditions: tested in a similar manner as DGKα
[4] = Evaluation of ring-opening under biological conditions with cysteine (LC-MS/MS); format: physicochemical; conditions: cysteine 1.5 mmol eq., 37° C., 24 hrs, PBS and DMF (5:1)
Description: (§3) An exemplary azetidine compound (RLM207) was dissolved in deuterated PBS with either cysteine (1.5 mmol eq.) or glutathione (1.5 mmol eq.), and incubated at 37° C. for 24 hrs in phosphate-buffered saline and DMF (5:1). To observe if any products formed between the RLM207 and biological nucleophiles, high-resolution LC-MS/MS was used to analyze the two reactions. Samples were desalted on a STAGE-Tip C^18 column and dissolved in mobile phase A (0.1% formic acid) for LC-MS/MS analysis. […] Thus, at 24.46 min, there appeared a peak with an M+1 mass of 547.2336 m/z corresponding to the covalent product.
(§4) Ring-opening reactions of azetidines typically employ harsh conditions that are not amenable to biological samples, such as strong acids and organic solvents^12-15. Our discovery was the first indication that azetidines form covalent products with a tripeptide.

[5] = Evaluation of ring-opening under biological conditions with glutathione (LC-MS/MS); format: physicochemical; conditions: glutathione 1.5 mmol eq., 37° C., 24 hrs, PBS and DMF (5:1), MS2
Description: as §3, §4

[6] = tested on: Soluble and membrane HEK293T cell proteomes; experiment: Gel assay (gel ABPP): protein binding, rhodamine CuAAC, SDS-PAGE fluorescence; design: species or system human; conditions: 25 μM, one hour
Description: (§5) FIG. 2. Structure activity relationship studies of some azetidine compounds of the present disclosure and their reactivity. Cell lysates were incubated with the indicate azetidine compounds for 1 hr for gel experiments and 3 hrs for LC-MS/MS experiments. Rhodamine or desthiobiotin tags were appended to the probe for gel and mass spectrometry experiments, respectively, by copper-catalyzed azide-alkyne cycloaddition, i.e., CLICK chemistry.
as §2

[7] = target: recombinant mammalian DGKα (Rattus norvegicus, UniProt P51556); experiment: LC-MS/MS enrichment of azetidine-bound peptides on recombinant DGKα; format: binding
recombinant mammalian DGKα, sequence (P51556 whole entry): as above
Description: (§6) Next, isotopically labeled proteins were obtained through routine procedures using labeled amino acids, and the proteins were then reacted with TH071 for 3 hrs before click chemistry with desthiobiotin azide for 2 hours. Proteins were digested by trypsin into peptides before azetidine-bound peptides were enriched via affinity chromatography. Eluted peptides were analyzed by high resolution LC-MS/MS using a top 10 data-dependent acquisition (DDA). An added mass of 631.3858 Da was used to search for azetidine modifications to amino acid residues. Peptides were quantified between samples by measuring the integration of MS1 peaks between heavy and light peptides, and were sequenced by manual verification of MS2 fragmentation spectra. […] Sulfhydration modifications are a form of cysteine oxidation after the reaction with H2S to form a persulfide (S—SH).
Due to the lipophilic nature of azetidines, we also tested TH071 on recombinant mammalian DGKα and enriched for four peptides that were unique to this azetidine compound. Of these sites, two are located adjacent to the active site, one within the catalytic domain, and another in the zinc finger domain. […] DGKs […] the interconversion of diacylglycerol (DAG) to phosphatidic acid (PA). […]

[8] = tested on: HEK lysates; experiment: LC-MS/MS identification of azetidine-tagged proteins/peptides (desthiobiotin azide enrichment); format: binding, human
Description: as §5
Our initial attempts to enrich for azetidine-bound peptides were not optimal when we treated HEK lysates with only 25 μM of azetidine compound, illustrated by TH071. While we could easily observe protein bands by gel fluorescence, we were not saturating the proteome.
as §6

[9] = tested on: DGK; experiment: Gel labeling of second DGK isoform by probe; format: binding; conditions: gel assay
Description: as §2, §1

[Na+].[Na+].[S-]SS[S-] [Na2S4]
decrease of DGKα activity ([1]; 1 μM sulfur donor): 30%
decrease of DGKα activity ([1]; 10 μM sulfur donor): 40%
effect of sulfur donor on TH071 labeling of DGKα (competitive ABPP) [2]: these results were recapitulated
effect on DGK activity in substrate assay [3]: showed no effect

C#CCCCN1CC(c2nc3ccccc3[nH]2)C1 [RLM207]
product formation between azetidine and cysteine [4]: no change was observed
product formation between azetidine and glutathione (ring-opening) [5]: had bound to the cysteine of glutathione

C#CCCCN1CC(c2ccc(F)cc2)C1 [TH069]
azetidine reactivity / protein binding (probe labeling) in gel assay [6]: most reactive

C#CCCCN1CC(c2cccc(F)c2)C1 [TH070]
azetidine reactivity / protein binding (probe labeling) in gel assay [6]: least reactive

C#CCCCN1CC(c2ccccc2F)C1 [TH071]
number of enriched peptides unique to the azetidine compound [7]: four
enrichment of azetidine-bound peptides ([8]; 25 μM, HEK lysates): not optimal
identification of azetidine-tagged proteins by LC-MS/MS ([8]; 0.5 mM TH071, 3 hrs, HEK lysates): identified multiple azetidine-tagged proteins
residue type modified by the azetidine compound ([8]; MS2 site localisation, FIG. 5): binds to cysteine residues
azetidine reactivity / protein binding (probe labeling) in gel assay [6]: most reactive; also recorded: could not recover probe labeling; also recorded: displayed the best reactivity
probe labeling of DGK protein [9]: failed to label the protein

C#CCCCN1CCC1c1cccc(F)c1 (stereo not shown) [TH073]
azetidine reactivity / protein binding (probe labeling) in gel assay [6]: could not recover probe labeling

C#CCCCN1CCC1c1ccccc1F (stereo not shown) [TH074]
azetidine reactivity / protein binding (probe labeling) in gel assay [6]: could not recover probe labeling
